Measurements published in patent US8546389B2 (priority 2010, dated 2013).
Read-outs that look alike come from different tables or passages of the source.

Legend:
1b (BK) NS5bΔ21 = 1b (BK) NS5bΔ21 (Hepatitis C virus genotype 1b (isolate BK) (HCV), UniProt P26663); test: HCV polymerase inhibition assay, genotype 1b; assay type: biochemical, HCV genotype 1b (BK)
In short: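 NS5bΔ21 (50 nM) in Tris-HCl pH 7.5 with Mg2+/Mn2+, DTT, BSA, 0.5% DMSO, poly(rC) template, GTP at Km and ^33P-GTP; 3-fold compound dilutions. GTP-started reactions stopped with EDTA after 1 h; incorporation read by DEAE filter scintillation counting. IC50 by non-linear regression; 3a enzyme run the same way.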

[1] = target: genotype 3a (VRL-69) NS5bΔ21 polymerase (Hepatitis C virus genotype 3a, UniProt Q81258); test: HCV polymerase inhibition assay, genotype 3a; assay type: biochemical, HCV genotype 3a (VRL-69)
Chain of genotype 3a (VRL-69) NS5bΔ21 polymerase (Q81258 whole entry, looked up, stated change not applied): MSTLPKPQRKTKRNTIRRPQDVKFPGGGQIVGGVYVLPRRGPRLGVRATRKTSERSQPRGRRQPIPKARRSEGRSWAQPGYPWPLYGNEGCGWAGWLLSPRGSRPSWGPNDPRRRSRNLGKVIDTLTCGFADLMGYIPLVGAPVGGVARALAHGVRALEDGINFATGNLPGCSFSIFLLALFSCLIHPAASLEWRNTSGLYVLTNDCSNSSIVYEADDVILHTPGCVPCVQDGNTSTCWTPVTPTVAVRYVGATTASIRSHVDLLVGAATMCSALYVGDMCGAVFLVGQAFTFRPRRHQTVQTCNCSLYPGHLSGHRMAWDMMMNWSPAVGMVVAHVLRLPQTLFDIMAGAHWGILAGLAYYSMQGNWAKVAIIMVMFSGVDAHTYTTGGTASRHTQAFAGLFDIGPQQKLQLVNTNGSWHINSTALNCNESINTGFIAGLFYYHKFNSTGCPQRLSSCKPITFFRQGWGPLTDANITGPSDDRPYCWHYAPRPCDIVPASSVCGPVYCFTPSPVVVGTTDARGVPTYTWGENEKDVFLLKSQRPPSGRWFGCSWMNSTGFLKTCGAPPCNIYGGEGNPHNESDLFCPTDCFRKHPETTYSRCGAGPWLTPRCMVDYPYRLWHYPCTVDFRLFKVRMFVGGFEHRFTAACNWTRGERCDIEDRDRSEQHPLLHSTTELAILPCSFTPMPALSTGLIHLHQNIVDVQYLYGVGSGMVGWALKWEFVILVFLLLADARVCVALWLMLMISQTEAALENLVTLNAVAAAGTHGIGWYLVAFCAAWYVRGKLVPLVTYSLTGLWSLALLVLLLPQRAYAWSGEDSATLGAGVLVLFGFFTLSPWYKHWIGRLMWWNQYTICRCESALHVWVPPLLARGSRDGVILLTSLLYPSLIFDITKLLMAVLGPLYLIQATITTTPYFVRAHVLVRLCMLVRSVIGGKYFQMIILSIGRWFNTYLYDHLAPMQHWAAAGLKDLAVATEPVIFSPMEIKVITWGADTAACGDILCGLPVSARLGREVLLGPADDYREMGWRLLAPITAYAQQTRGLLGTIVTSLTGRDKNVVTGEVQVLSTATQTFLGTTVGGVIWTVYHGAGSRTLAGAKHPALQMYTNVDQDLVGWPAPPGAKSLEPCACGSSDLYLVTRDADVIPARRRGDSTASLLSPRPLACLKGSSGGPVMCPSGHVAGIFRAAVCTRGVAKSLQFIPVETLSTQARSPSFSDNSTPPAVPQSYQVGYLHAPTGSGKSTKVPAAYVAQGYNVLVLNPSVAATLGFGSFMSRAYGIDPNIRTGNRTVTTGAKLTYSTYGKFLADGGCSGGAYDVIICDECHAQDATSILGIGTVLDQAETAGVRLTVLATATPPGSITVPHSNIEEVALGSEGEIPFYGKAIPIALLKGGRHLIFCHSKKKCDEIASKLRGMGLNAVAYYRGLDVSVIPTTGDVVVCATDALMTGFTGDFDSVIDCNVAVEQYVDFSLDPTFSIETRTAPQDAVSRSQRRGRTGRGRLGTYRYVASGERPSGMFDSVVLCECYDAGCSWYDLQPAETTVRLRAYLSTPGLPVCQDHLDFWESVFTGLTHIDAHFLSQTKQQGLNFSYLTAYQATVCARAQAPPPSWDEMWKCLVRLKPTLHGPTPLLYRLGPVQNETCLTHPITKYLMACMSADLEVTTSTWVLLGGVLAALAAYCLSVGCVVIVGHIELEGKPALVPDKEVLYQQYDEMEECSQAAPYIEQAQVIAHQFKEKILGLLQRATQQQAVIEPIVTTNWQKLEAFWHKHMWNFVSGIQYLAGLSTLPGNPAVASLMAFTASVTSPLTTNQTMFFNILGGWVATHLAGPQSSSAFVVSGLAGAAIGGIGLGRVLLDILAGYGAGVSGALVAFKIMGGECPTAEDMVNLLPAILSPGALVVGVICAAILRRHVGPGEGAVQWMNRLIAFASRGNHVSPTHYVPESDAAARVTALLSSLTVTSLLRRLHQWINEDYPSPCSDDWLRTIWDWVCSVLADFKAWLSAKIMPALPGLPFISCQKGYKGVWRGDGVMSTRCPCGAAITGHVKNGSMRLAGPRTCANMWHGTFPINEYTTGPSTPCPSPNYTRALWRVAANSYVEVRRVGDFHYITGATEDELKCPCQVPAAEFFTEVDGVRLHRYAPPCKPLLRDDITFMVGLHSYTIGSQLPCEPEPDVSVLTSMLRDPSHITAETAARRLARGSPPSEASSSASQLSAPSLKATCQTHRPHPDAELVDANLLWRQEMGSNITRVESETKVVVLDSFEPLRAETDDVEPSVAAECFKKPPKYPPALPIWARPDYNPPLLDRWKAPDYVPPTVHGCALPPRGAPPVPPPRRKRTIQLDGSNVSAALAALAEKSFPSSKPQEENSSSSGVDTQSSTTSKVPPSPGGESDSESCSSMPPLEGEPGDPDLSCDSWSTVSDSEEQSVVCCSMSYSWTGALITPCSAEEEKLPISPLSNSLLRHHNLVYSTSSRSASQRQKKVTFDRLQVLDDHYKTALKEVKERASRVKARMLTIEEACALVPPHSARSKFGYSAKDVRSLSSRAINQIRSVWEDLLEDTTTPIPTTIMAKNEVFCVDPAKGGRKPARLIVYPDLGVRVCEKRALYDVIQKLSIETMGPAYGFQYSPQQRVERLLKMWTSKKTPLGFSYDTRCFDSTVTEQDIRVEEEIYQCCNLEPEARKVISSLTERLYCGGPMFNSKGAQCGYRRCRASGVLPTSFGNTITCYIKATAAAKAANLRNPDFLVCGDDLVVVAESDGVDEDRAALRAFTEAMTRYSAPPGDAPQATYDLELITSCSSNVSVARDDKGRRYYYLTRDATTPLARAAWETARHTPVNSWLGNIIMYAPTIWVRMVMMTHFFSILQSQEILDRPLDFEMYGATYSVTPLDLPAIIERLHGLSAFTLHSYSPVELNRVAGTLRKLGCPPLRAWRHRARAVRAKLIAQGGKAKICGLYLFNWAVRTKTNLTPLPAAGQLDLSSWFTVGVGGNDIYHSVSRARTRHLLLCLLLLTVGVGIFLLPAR
Method: HCV polymerase reactions were carried out using a modified method of Howe et al., Antimicrobial Agents and Chemotherapy 2004 48(12): 4813-4821. Reactions contained a final concentration of, 0.5% DMSO, 50 nM, 1b (BK) NS5bΔ21, 20 mM Tris-HCl pH 7.5, 5 mM MgCl2, 5 mM MnCl2, 3 mM DTT, 0.05% BSA, 0.2 U/μL RNasin, 10 μg/mL Poly(rC) template, GTP (at Km) and 0.05 μCi/μL ^33P-GTP in a total reaction volume of 50 μL. Compounds were tested in a three fold dilution series, for example starting from 50 μM. Reactions were initiated with the addition of GTP and terminated after 1 hour with 50 μL ice cold 0.2 M EDTA. Terminated reactions were transferred to DEAE 96-well filter plates, unincorporated nucleotides washed from the filters and 50 μL scintillation fluid added prior to reading on a scintillation counter. Similarly, a genotype 3a (VRL-69) NS5bΔ21 polymerase enzyme assay was conducted using essentially the same method.
The compound concentration that reduced ^33P-GTP incorporation by 50% (IC50) was calculated using non-linear regression.

[2] = test system: genotype 1b (Con 1) subgenomic replicon cell line; test: HCV replicon assay, genotype 1b (Renilla luciferase); assay type: cell-based, HCV genotype 1b (Con 1); conditions: genotype 1b replicon
In short: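 Subgenomic replicon cells expressing Renilla luciferase (1b Con1; 1a and 2a lines by the same method) seeded at 7000 cells/well (5000 for 2a) without G418, exposed to 3-fold compound dilutions for 72 h at 37 °C. Luciferase activity measured; EC50 by non-linear regression.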

[3] = test system: subgenomic genotype 1a replicon cell line; test: HCV replicon assay, genotype 1a; assay type: cell-based, HCV genotype 1a
Method: (§1) A genotype 1b (Con 1) subgenomic replicon cell line based on Blight et al., Science 2000 290: 1972-1974, modified to express a Renilla luciferase reporter gene was used to assess antiviral activity of test compounds. Cell cultures were maintained in a sub-confluent state in DMEM with glutamine, 10% heat-inactivated foetal bovine serum (FBS) and G418 (Geneticin®).
(§2) For assay, cells were seeded at a density of 7000 cells/well into 96 well tissue culture trays in culture media lacking G418. Compounds were tested in a three fold dilution series, for example starting from 50 uM. After 72 hours incubation at 37° C. and 5% CO2, Renilla luciferase activity was quantified via the Promega Renilla Luciferase or Renilla-Glo™ Luciferase Assay Systems (Promega corporation. The same method was employed for replicon assays using subgenomic genotype 1a and 2a replicon cell lines with a seeding cell density of 5000 cells/well for the 2a cell lines.
(§3) The compound concentration that reduced luciferase activity by 50% (EC50) was calculated using non-linear regression.

[4] = test system: subgenomic genotype 2a replicon cell line; test: HCV replicon assay, genotype 2a; assay type: cell-based, HCV genotype 2a
Method: as §1, §2, §3

[5] = 1b (BK) NS5bΔ21, 33P-GTP incorporation, read-out: 1b polymerase IC50 (range class)
[6] = genotype 1b, read-out: 1b NS5b polymerase IC50
[7] = genotype 3a, read-out: 3a NS5b polymerase IC50
[8] = Hepatitis C virus, 72 hours, luciferase, read-out: genotype 1b EC50 (range class)
[9] = Hepatitis C virus, read-out: Replicon 1b EC50

Chain of 1b (BK) NS5bΔ21 (P26663 2420-2989): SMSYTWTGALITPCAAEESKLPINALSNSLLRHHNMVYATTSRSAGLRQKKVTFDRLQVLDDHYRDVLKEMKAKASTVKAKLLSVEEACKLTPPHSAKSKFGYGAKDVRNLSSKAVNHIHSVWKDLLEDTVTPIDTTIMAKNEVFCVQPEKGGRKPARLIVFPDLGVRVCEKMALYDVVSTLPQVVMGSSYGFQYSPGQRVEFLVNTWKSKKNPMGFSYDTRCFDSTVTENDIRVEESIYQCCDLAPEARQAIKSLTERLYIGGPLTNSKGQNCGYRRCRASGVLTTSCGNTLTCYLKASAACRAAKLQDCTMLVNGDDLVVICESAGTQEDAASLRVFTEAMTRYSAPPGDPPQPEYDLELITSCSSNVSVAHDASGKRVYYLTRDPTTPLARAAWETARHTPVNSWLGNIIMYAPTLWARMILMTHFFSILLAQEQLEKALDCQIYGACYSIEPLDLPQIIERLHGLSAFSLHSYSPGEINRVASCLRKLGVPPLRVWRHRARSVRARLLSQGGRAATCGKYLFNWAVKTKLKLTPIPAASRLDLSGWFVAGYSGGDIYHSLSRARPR

SMILES	IC50 (1b (BK) NS5bΔ21; [5]) [nM]	IC50 (1b (BK) NS5bΔ21; [6]) [nM]	IC50 [1, 7] [nM]	EC50 [2, 8] [nM]	EC50 [2, 9] [nM]	EC50 ([3]; Hepatitis C virus) [nM]	EC50 ([4]; Hepatitis C virus) [nM]	EC50 ([2]; read-out: Replicon 1b EC50) [nM]	EC50 [3] [nM]	EC50 [4] [nM]	IC50 [1] [nM]
CNC(=O)c1c2cc(C3CC3)c(N(CCCO)S(C)(=O)=O)cc2nn1-c1ccc(Br)cc1 [Compound 4, 2-(4-bromophenyl)-5-cyclopropyl-6-[(3-hydroxypropyl)(methylsulfonyl)amino]-N-methyl-2H-indazole-3-carboxamide]	< 990	170	10	< 990	90	210	940				
CNC(=O)c1c2cc(C3CC3)c(N(CCCO)S(C)(=O)=O)cc2nn1-c1ccc(Nc2ccccc2F)cc1 [Compound 5, 5-cyclopropyl-2-{4-[(2-fluorophenyl)amino]phenyl}-6-[(3-hydroxypropyl)(methylsulfonyl)amino]-N-methyl-2H-indazole-3-carboxamide]	< 990	70	40	< 990	130	50	320				
CNC(=O)c1c2cc(C3CC3)c(N(CCCO)S(C)(=O)=O)cc2nn1-c1ccc(Nc2ccc(F)cc2)cc1 [Compound 21]	< 990	40	40	< 990	460	290	340				
CCN(c1cc2nn(-c3ccc(Nc4ccc(F)cc4)cc3)c(C(=O)NC)c2cc1C1CC1)S(C)(=O)=O [Compound 22]	< 990	110	20	< 990	70	380	340				
CCN(c1cc2nn(-c3ccc(Oc4ccccc4F)cc3)c(C(=O)NC)c2cc1C1CC1)S(C)(=O)=O [Compound 28]	< 990	120	20	< 990	100	740	200				
CNC(=O)c1c2cc(C3CC3)c(N(CCCO)S(C)(=O)=O)cc2nn1-c1ccc(Cl)cc1 [Compound 54, 2-(4-Chlorophenyl-1)-5-cyclopropyl-6-[3-hydroxypropyl(methylsulfonyl)amino]-N-methyl-indazole-3-carboxamide]		360	20					100	300	1030	
CNC(=O)c1c2cc(C3CC3)c(N(CCCNC(C)=O)S(C)(=O)=O)cc2nn1-c1ccc(Br)cc1 [Compound 59, 6-{[3-(Acetylamino)propyl](methylsulfonyl)amino}-2-(4-bromophenyl)-5-cyclopropyl-N-methyl-2H-indazole-3-carboxamide]	< 990	260	50	< 990	670	300	1430				
CNC(=O)c1c2cc(C3CC3)c(N(CCCNC(=O)C3CCC3)S(C)(=O)=O)cc2nn1-c1ccc(Br)cc1 [Compound 62]		180	50					170	80	2860	
CNC(=O)c1c2cc(C3CC3)c(N(CCCNC(=O)CCC(=O)OC)S(C)(=O)=O)cc2nn1-c1ccc(Br)cc1 [Compound 66, Methyl 4-[(3-{[2-(4-bromophenyl)-5-cyclopropyl-3-(methylcarbamoyl)-2H-indazol-6-yl](methylsulfonyl)amino}propyl)amino]-4-oxobutanoate]	< 990	320		< 990	120	20	360				80
CNC(=O)c1c2cc(C3CC3)c(N(CCC3COC(C)(C)OC3)S(C)(=O)=O)cc2nn1-c1ccc(Br)cc1 [Compound 95]		70	40					50	70	180	
C=CCN(c1cc2nn(-c3ccc(Br)cc3)c(C(=O)NC)c2cc1C1CC1)S(C)(=O)=O [Compound 98]		100	30					80	160	460	
CNC(=O)c1c2cc(C3CC3)c(N(CCCSC)S(C)(=O)=O)cc2nn1-c1ccc(Br)cc1 [Compound 99, 2-(4-bromophenyl)-5-cyclopropyl-N-methyl-6-[3-methylsulfanylpropyl(methylsulfonyl)amino]-2H-indazole-3-carboxamide]	< 990	90	20	< 990	70	430	1080				
CNC(=O)c1c2cc(C3CC3)c(N(CCCN3CCCCC3)S(C)(=O)=O)cc2nn1-c1ccc(Oc2ccc(F)cc2)cc1 [Compound 111]	1000 to 9990	1170	260	< 990	340	2920	2050				
CNC(=O)c1c2cc(C3CC3)c(N(CCN3CCOCC3)S(C)(=O)=O)cc2nn1-c1ccc(Oc2ccc(F)cc2)cc1 [Compound 112]	< 990	410	40	< 990	130	1900	2730				
CCN(c1cc2nn(-c3ccc(NCC(C)C)cc3)c(C(=O)NC)c2cc1C1CC1)S(C)(=O)=O [Compound 117]	< 990	430	70	< 990	70	340	150				
CNC(=O)c1c2cc(C3CC3)c(N(CCCNC(C)=O)S(C)(=O)=O)cc2nn1-c1ccc(Nc2ccc(F)cc2)cc1 [Compound 119]	< 990	130	30	< 990	240	1200	2700				
CNC(=O)c1c2cc(C3CC3)c(N(CCCNC(=O)c3ccoc3)S(C)(=O)=O)cc2nn1-c1ccc(Nc2ccc(F)cc2)cc1 [Compound 120]	< 990	110		< 990	90	3690	14400				80
